Assay results as given in ChEMBL document CHEMBL5608109, “Hepatotoxicity screening of Donated Chemical Probes” (2024).

System: Hepatocyte spheroids
Test: This assay model using primary human hepatocyte (PHH) spheroids, which are cultured in Williams E medium. After spheroid formation, cells are exposed to compounds in an FBS-free culture medium. […] Imaging is performed on an Opera Phenix High-Content Screening System, allowing quantification of proliferation as a readout for evaluating the effects of chemical probes on hepatocyte regeneration.
Type: functional
Settings: read-out: Cell Viability; for viability at 1 µM: Concentration 1 uM; for viability at 10 µM: Concentration 10 uM; for viability at 0.1 µM: Concentration 0.1 uM

| SMILES | viability at 1 µM | viability at 10 µM | viability at 0.1 µM |
| --- | --- | --- | --- |
| c1ccc(N2CCN(Cc3nc4ccccc4[nH]3)CC2)nc1 | 117% (non-toxic) | 110% (non-toxic) | – |
| COc1cc(-c2cn([C@H]3CCc4c(F)cccc4N(CC(F)(F)F)C3=O)nn2)ccc1-n1cnc(C)c1 | 115% (non-toxic) | 126% (non-toxic) | – |
| Clc1cccc(-c2nnnn2Cc2cccnc2)c1Cl | 97.1% (non-toxic) | 98.7% (non-toxic) | – |
| Cc1nc(N2CC[C@H](O)C2)ncc1-c1cc(C(F)(F)F)cc2[nH]ncc12 | 116% (non-toxic) | 107% (non-toxic) | – |
| O=C1CCc2cc(Nc3cc(OC4CCOCC4)c([N+](=O)[O-])cc3Cl)ccc2N1 | 147% (non-toxic) | 76% (non-toxic) | – |
| CC(C)(O)[C@H](F)CN1Cc2cc(NC(=O)c3cnn4cccnc34)c(N3CCOCC3)cc2C1=O | 118% (non-toxic) | 90.2% (non-toxic) | – |
| O=C(O)c1cc(-c2ccc(C3CCNCC3)cc2)c2ccc(-c3ccc(C(F)(F)F)cc3)cc2c1 | 91.3% (non-toxic) | 1.07% (toxic) | – |
| C[C@@H](c1cccc(CN)c1)n1cc(Cl)cc(C(N)=O)c1=N | 104% (non-toxic) | 111% (non-toxic) | – |
| CCCCN(CCCC)C(=O)CN1C[C@H](c2cc(OC)c3c(c2)OCO3)[C@@H](C(=O)O)[C@@H]1CC(C)(C)CCC | 83.6% (non-toxic) | – | 107% (non-toxic) |
| c1ccc2oc(-c3csc(C4CCN(Cc5nc6ncccc6[nH]5)CC4)n3)cc2c1 | 88.5% (non-toxic) | 35.4% (toxic) | – |
| CCOc1ccc(S(=O)(=O)Nc2ccc(Cl)cc2C#Cc2cnc(C(=O)O)cc2OC)c2ncccc12 | 91.1% (non-toxic) | 17.2% (toxic) | – |
| CC1=CC(C)=[N+]2C1=C(CCCCc1cn(CC(=O)N3CCc4nc(NC(=O)[C@H]5CCN(C#N)C5)sc4C3)nn1)c1c(C)cc(C)n1[B-]2(F)F | 104% (non-toxic) | 105% (non-toxic) | – |
| CCNC(=O)c1cc2c(N3CCOCC3C)ccnc2[nH]1 (stereo unspecified) | 90.1% (non-toxic) | 74.9% (non-toxic) | – |
| Cn1cncc1[C@](O)(COc1ccc(C#N)cc1-c1ccc(OC(F)(F)F)cc1)c1ccc(C#N)cc1 | 112% (non-toxic) | 113% (non-toxic) | – |
| N#CN1CC[C@H](C(=O)Nc2nc3c(s2)CN(C(=O)CN=[N+]=[N-])CC3)C1 [8RK64] | 97.6% (non-toxic) | 70.7% (toxic) | – |
| CN(C)[C@@H]1CCN(c2cc(-c3ccccc3)nc3ccnn23)C1 [(R)-ZINC-3573] | 111% (non-toxic) | 95.8% (non-toxic) | – |
| CNC(=O)Nc1ccc2c(c1)CC[C@@]21OC(=O)N(CC(=O)N(Cc2ccc(F)cc2)[C@@H](C)C(F)(F)F)C1=O [A-485] | 69.1% (toxic) | – | 102% (non-toxic) |
| CCCOc1ccc([C@H]2[C@H](C(=O)O)[C@@H](c3ccc4c(c3)OCO4)CN2CC(=O)Nc2c(CC)cccc2CC)cc1 [A-192621] | 110% (non-toxic) | – | 104% (non-toxic) |
| CN(C)CC#Cc1ccc(OCCCc2sc(N3CCc4cccc(C(=O)Nc5nc6ccccc6s5)c4C3)nc2C(=O)O)c(F)c1 [A-1155463] | 120% (non-toxic) | 117% (non-toxic) | – |

| SMILES | viability at 1 µM | viability at 10 µM | viability at 0.1 µM |
| --- | --- | --- | --- |
| CO[C@H]1CC[C@H](CNc2ccc(S(=O)(=O)NC(=O)c3ccc(N4CCN(CC5=C(c6ccc(Cl)cc6)CC(C)(C)CC5)CC4)cc3Oc3cnc4[nH]ccc4c3)cc2[N+](=O)[O-])CC1 [A-1211212] | 130% (non-toxic) | 126% (non-toxic) | – |
| COc1ccc2c(c1)O[C@@H](c1ccc(OC)c(OC)c1)C[C@H]2NC(=O)C1(c2ccc3c(c2)OC(F)(F)O3)CC1 [A-1596586] | 104% (non-toxic) | 88.5% (non-toxic) | – |
| Cc1ccccc1Oc1cc(-n2c(=O)cc(C(F)(F)F)[nH]c2=O)c2ccccc2c1Cl [BAY-069] | 82.5% (non-toxic) | 62.5% (toxic) | – |
| CNCc1ccccc1-c1csc([C@@H](C)Nc2nc(C)nc3cc(OC)c(OC)cc23)c1 [BAY-293] | 120% (non-toxic) | 0.873% (toxic) | – |
| O=C(N1CCS(=O)(=O)CC1)N1C[C@H](c2ccc(OC(F)(F)F)cc2)C[C@H](c2nc(C3CC3)no2)C1 [BAY-386] | 121% (non-toxic) | 111% (non-toxic) | – |
| O[C@]1(C(F)(F)F)CCCC[C@H]1Nc1ccc(F)cc1 [BAY-390] | 96.9% (non-toxic) | – | 99.2% (non-toxic) |
| CC1=C(C#N)C(c2ccc3[nH]nc(C)c3c2)C(C#N)=C(C)N1 [BAY-474] | 99.5% (non-toxic) | 111% (non-toxic) | – |
| Cc1c[nH]c2nccc(Oc3c(F)cc(Nc4cc(Cl)nc(N)n4)cc3F)c12 [BAY-549] | 83.7% (non-toxic) | – | 79.9% (non-toxic) |
| CC(=O)C1=C(C)N(c2cccc(C(F)(F)F)c2)C(=O)N[C@@H]1c1ccc(C#N)nc1 [BAY-678] | 139% (non-toxic) | 132% (non-toxic) | – |
| O=C(NCc1ncc(C(F)(F)F)cc1Cl)c1ccc2c(c1)C1(CCS(=O)(=O)CC1)[C@H](C1CC1)N2S(=O)(=O)c1ccc(F)cc1 [BAY-784] | 107% (non-toxic) | – | 103% (non-toxic) |
| Cc1cc(C)c(-n2ccn3nc(-c4cccnc4)cc23)cc1NC(=O)c1cc(C#N)cc(S(F)(F)(F)(F)F)c1 [BAY-826] | 144% (non-toxic) | – | 149% (non-toxic) |
| Cc1c(NC(=O)c2cc(C(N)=O)nc3cc(F)ccc23)c(C(F)(F)F)nn1Cc1ccc(C#N)cc1 [BAY-876] | 91.5% (non-toxic) | 21.4% (toxic) | – |
| CN1CCN(c2cnc3c(C4CCN(C(=O)c5ccc(OC(F)(F)F)cc5N)CC4)ncnc3c2)CC1 [BAY-885] | 99.8% (non-toxic) | 98.6% (non-toxic) | – |
| O=C(Nc1cnc(Oc2ccc(F)cc2)nc1)N1CCc2ncccc2[C@@H]1c1ccc(F)cc1 [BAY-899] | 92.3% (non-toxic) | 106% (non-toxic) | – |
| C[C@H](c1ccnc(Nc2nc3ccc(-c4cc(N(C)C)ncn4)cc3[nH]2)c1)N1CCN(C(=O)CC(F)(F)F)CC1 [BAY-985] | 68.2% (non-toxic) | 38.1% (toxic) | – |
| NS(=O)(=O)c1cc(NC(=O)Cc2ccccc2)ccc1Oc1cccc(Cl)c1 [BAY-1797] | 111% (non-toxic) | 19.3% (toxic) | – |
| CCc1ccccc1C(=O)Nc1n[nH]c2c(C)c(F)c(C3C(C#N)=C(C)N(C)C(C)=C3C#N)cc12 [BAY-3827] | 110% (non-toxic) | 84.2% (non-toxic) | – |
| Cc1c(N2CCCC2)nc2ccc(Br)cc2c1C(=O)NC[C@H](CCC(=O)O)c1ccccc1Cl [BAY-6672] | 106% (non-toxic) | 111% (non-toxic) | – |
| O=C(O)[C@H]1[C@H](Cn2nnc3ccccc3c2=O)CC[C@@H]1C(=O)c1ccc(OCCC2CCOCC2)cc1 [BAY-7598] | 97.3% (non-toxic) | – | 96.9% (non-toxic) |
